Source: patent publication US20240246942A1, “KINASE INHIBITORS FOR THE TREATMENT OF NEURODEGENERATIVE DISEASES” (priority 2020, published 2024)

Assays:
Experiment in all cases: biochemical
[1] = molecular target: T1, panel of 374 wild-type kinases (Homo sapiens, UniProt P54760); conditions: read-out: % Enzyme Activity (relative to DMSO controls), EPHB4
T1 construct: purchased Reaction Biology Corporation
T1 sequence (P54760 16-987): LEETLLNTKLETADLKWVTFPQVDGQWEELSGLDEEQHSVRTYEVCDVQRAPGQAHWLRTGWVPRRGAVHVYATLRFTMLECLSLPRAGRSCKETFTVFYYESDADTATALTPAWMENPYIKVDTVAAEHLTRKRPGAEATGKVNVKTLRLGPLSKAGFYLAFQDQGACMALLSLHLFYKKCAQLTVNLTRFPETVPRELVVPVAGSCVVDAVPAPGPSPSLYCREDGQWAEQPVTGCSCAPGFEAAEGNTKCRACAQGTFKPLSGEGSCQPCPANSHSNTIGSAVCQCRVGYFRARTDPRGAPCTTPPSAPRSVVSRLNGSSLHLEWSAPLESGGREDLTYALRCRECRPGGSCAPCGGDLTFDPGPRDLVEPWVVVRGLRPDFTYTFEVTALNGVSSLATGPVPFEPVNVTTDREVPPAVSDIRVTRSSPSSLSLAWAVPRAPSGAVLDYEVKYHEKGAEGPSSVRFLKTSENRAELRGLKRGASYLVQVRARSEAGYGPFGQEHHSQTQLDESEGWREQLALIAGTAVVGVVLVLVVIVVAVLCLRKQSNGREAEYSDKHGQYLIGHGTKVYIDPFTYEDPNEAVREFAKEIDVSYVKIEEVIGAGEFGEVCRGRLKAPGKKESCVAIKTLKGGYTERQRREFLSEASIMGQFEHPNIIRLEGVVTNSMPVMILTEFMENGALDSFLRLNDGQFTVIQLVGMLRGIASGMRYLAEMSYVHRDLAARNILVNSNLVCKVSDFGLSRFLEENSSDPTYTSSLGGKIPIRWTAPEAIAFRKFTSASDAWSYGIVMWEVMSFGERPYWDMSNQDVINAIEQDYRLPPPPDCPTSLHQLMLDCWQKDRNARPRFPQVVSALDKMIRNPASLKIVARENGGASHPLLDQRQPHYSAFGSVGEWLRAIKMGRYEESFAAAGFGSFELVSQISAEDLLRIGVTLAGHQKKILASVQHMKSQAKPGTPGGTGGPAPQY

[2] = molecular target: T2, panel of 374 wild-type kinases (Homo sapiens, UniProt Q9Y4K4); conditions: read-out: % Enzyme Activity (relative to DMSO controls), KHS/MAP4K5
T2 construct: purchased Reaction Biology Corporation

[3] = molecular target: T3, panel of 374 wild-type kinases (Homo sapiens, UniProt Q07002); conditions: read-out: % Enzyme Activity (relative to DMSO controls), CDK18/cyclin Y (PCTK3)
T3 construct: purchased Reaction Biology Corporation

[4] = molecular target: T4, panel of 374 wild-type kinases (Homo sapiens, UniProt Q13177); conditions: read-out: % Enzyme Activity (relative to DMSO controls), kinase PAK2
T4 construct: purchased Reaction Biology Corporation

[5] = molecular target: T5, panel of 374 wild-type kinases (Homo sapiens, UniProt P51813); conditions: read-out: % Enzyme Activity (relative to DMSO controls), BMX/ETK
T5 construct: purchased Reaction Biology Corporation
T5 sequence (P51813 1-675): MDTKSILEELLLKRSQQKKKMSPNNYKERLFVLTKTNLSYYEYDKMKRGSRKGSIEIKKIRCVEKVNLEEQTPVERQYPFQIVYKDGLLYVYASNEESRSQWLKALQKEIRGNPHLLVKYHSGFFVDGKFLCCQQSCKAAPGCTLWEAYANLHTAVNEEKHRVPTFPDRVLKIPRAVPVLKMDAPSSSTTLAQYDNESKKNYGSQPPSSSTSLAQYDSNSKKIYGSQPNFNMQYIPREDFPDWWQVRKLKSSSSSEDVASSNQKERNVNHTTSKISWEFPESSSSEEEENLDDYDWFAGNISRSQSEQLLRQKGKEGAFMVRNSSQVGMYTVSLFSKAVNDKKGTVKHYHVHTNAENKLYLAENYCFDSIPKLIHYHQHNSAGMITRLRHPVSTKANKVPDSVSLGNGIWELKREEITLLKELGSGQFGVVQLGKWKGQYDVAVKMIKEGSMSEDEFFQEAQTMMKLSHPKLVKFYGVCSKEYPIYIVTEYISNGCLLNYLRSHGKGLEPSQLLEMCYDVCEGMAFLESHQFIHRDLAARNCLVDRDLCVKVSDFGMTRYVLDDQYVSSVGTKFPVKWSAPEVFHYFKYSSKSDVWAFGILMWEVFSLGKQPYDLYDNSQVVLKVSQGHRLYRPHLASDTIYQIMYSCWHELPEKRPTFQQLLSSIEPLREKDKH

[6] = molecular target: T6, panel of 374 wild-type kinases (Homo sapiens, UniProt Q9H4B4); conditions: read-out: % Enzyme Activity (relative to DMSO controls), kinase PLK3
T6 construct: purchased Reaction Biology Corporation

[7] = molecular target: T7, panel of 374 wild-type kinases (Homo sapiens, UniProt Q9BWU1); conditions: read-out: % Enzyme Activity (relative to DMSO controls), CDK19/cyclin C
T7 construct: purchased Reaction Biology Corporation

[8] = molecular target: T8, panel of 374 wild-type kinases (Homo sapiens, UniProt P23458); conditions: read-out: % Enzyme Activity (relative to DMSO controls), JAK1
T8 construct: purchased Reaction Biology Corporation

[9] = molecular target: T9, panel of 374 wild-type kinases (Homo sapiens, UniProt Q8NEV4); conditions: MYO3A, read-out: % Enzyme Activity (relative to DMSO controls)
T9 construct: purchased Reaction Biology Corporation

[10] = molecular target: T10, panel of 374 wild-type kinases (Homo sapiens, UniProt P17948); conditions: read-out: % Enzyme Activity (relative to DMSO controls), FLT1/VEGFR1
T10 construct: purchased Reaction Biology Corporation
T10 sequence (P17948 27-1338): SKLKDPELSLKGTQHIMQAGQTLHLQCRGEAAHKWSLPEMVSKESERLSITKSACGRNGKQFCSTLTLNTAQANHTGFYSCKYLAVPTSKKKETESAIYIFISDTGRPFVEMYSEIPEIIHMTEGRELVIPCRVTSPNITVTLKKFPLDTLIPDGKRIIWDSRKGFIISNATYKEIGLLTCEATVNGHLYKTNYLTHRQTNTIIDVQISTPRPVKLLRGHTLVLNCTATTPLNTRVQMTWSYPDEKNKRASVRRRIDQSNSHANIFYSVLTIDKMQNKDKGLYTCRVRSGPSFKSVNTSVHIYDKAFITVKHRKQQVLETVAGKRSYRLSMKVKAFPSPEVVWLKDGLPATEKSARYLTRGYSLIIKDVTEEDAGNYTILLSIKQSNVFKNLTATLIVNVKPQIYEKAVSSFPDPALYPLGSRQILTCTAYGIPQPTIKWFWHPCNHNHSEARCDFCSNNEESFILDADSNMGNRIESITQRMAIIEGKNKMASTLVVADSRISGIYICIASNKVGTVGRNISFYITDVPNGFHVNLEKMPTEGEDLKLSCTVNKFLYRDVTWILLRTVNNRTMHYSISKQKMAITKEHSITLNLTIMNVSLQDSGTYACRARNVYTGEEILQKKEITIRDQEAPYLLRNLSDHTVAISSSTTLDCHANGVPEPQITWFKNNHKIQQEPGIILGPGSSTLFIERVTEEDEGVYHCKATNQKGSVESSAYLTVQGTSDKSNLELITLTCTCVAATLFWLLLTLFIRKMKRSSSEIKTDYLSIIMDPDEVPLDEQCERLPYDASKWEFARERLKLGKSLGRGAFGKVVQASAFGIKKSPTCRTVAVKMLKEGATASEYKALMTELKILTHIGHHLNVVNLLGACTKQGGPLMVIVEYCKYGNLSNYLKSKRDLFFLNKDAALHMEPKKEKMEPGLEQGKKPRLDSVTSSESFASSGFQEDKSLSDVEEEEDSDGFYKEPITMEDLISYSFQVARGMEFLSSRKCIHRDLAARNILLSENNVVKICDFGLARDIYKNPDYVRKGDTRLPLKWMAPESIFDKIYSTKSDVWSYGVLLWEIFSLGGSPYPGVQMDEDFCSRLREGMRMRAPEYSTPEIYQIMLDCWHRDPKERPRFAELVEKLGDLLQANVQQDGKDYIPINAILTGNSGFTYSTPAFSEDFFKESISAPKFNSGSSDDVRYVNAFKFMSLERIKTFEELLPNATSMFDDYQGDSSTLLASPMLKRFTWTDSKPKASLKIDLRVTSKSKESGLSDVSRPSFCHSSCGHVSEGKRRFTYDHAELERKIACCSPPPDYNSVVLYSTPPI

T7 sequence (Q9BWU1 whole entry): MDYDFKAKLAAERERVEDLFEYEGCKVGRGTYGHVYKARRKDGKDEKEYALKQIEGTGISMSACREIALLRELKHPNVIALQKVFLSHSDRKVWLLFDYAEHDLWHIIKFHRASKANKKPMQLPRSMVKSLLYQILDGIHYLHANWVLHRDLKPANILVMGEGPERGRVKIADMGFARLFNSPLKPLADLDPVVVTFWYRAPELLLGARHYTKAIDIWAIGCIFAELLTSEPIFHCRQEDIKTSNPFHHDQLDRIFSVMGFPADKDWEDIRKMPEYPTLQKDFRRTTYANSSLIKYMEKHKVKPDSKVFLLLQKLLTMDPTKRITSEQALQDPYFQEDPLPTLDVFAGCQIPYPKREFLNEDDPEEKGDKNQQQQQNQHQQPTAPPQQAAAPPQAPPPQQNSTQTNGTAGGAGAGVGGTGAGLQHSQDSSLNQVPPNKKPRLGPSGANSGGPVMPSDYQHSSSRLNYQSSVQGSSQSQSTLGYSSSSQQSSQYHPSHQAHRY
T4 sequence (Q13177 whole entry): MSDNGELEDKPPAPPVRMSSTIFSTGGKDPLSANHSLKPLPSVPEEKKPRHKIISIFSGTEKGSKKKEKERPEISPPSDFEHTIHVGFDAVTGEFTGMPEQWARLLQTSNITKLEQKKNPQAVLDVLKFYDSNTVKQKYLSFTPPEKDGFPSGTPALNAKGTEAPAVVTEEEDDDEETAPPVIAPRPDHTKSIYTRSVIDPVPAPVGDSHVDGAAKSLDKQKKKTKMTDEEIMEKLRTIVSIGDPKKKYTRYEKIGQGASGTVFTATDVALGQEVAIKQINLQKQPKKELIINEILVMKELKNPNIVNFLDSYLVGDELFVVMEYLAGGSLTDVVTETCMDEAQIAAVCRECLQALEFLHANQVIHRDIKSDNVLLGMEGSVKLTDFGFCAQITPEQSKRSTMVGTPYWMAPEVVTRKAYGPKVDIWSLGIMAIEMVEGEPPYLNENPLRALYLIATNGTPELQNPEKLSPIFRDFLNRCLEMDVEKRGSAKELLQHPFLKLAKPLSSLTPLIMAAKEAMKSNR
T3 sequence (Q07002 whole entry): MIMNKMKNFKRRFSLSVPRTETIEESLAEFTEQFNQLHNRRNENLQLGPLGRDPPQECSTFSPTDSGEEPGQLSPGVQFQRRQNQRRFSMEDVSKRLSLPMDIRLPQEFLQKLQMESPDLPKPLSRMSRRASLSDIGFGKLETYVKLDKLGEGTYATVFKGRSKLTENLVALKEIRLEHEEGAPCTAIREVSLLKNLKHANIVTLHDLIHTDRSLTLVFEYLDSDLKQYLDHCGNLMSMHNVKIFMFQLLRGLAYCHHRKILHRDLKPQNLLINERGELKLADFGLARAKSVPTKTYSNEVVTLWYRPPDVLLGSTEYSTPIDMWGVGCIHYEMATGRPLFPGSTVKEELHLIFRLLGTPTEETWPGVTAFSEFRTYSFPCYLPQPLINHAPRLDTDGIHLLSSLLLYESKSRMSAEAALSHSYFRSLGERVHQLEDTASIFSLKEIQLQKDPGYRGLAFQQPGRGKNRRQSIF
T8 sequence (P23458 whole entry): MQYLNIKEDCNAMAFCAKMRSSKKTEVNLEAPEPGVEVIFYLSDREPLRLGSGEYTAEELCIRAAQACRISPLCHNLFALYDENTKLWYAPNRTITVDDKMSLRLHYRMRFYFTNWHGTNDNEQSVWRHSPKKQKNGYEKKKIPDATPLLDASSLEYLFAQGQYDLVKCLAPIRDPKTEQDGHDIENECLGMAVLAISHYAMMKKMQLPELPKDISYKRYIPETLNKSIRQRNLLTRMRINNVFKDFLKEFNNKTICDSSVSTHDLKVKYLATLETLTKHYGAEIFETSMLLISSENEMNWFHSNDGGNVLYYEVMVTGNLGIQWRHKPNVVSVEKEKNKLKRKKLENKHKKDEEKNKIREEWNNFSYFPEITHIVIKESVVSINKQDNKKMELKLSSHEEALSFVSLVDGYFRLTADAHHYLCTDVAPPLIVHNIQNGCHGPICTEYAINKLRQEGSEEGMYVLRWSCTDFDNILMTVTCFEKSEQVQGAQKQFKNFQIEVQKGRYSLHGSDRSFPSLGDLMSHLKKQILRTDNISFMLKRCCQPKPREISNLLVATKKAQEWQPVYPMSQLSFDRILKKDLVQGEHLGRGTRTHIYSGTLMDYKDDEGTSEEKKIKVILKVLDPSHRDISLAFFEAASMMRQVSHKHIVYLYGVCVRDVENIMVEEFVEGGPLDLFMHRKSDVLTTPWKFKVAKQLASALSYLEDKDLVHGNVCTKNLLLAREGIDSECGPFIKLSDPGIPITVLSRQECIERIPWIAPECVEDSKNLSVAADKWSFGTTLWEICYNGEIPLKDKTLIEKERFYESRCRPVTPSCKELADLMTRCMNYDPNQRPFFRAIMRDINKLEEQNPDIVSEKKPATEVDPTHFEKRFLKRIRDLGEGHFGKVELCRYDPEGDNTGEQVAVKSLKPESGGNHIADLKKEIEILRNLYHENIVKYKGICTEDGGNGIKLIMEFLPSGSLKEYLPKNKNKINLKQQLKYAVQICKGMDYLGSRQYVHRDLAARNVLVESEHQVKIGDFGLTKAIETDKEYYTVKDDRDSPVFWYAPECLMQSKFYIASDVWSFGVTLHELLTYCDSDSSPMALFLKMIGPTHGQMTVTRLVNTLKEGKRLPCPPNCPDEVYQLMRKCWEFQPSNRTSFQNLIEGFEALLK
T2 sequence (Q9Y4K4 whole entry): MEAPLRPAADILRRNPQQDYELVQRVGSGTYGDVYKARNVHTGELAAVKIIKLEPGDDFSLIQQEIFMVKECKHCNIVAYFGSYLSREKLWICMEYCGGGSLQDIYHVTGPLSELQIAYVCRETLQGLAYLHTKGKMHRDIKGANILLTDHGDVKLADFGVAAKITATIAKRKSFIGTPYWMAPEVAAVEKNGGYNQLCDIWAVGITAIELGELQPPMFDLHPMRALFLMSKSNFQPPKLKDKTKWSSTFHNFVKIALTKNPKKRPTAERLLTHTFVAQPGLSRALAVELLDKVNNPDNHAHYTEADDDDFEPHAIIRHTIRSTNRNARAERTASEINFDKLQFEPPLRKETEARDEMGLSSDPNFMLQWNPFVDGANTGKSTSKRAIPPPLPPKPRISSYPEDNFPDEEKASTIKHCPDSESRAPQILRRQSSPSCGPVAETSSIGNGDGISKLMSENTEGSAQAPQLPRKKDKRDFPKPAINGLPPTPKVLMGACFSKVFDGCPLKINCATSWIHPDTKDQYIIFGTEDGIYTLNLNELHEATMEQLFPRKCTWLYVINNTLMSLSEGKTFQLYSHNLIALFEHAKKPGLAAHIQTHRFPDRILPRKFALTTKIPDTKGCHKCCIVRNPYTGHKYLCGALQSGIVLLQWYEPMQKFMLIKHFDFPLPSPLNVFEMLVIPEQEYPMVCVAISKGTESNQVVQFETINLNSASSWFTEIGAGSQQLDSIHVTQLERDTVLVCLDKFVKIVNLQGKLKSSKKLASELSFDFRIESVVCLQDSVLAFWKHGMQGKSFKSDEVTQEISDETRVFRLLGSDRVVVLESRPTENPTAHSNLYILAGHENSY

SMILES	remaining activity at 10 µM ([1]; 10 uM)	remaining activity at 10 µM ([2]; 10 uM)	remaining activity at 10 µM ([3]; 10 uM)	remaining activity at 10 µM ([4]; 10 uM)	remaining activity at 10 µM ([5]; 10 uM)	remaining activity at 10 µM ([6]; 10 uM)	remaining activity at 10 µM ([7]; 10 uM)	remaining activity at 10 µM ([8]; 10 uM)	remaining activity at 10 µM ([9]; 10 uM)	remaining activity at 10 µM ([10]; 10 uM)	remaining activity at 5 µM [1]	remaining activity at 5 µM [2]	remaining activity at 5 µM [3]	remaining activity at 5 µM [4]	remaining activity at 5 µM [5]	remaining activity at 5 µM [6]	remaining activity at 5 µM [7]	remaining activity at 5 µM [8]	remaining activity at 5 µM [9]	remaining activity at 5 µM [10]
Cc1sc(C(=O)NC2COC2)cc1-n1cc(NC(=O)Nc2c(F)cccc2Cl)cn1 [Compound 27, 4-(4-(3-(2-chloro-6-fluorophenyl)ureido)-1H-pyrazol-1-yl)-5-methyl-N-(oxetan-3-yl)thiophene-2-carboxamide]	93.7%	98.4%	119%	106%	92.9%	102%	98.1%	72.2%	91.1%	84.1%	–	–	–	–	–	–	–	–	–	–
O=C(Nc1cnn(-c2csc(C(=O)NC3COC3)c2)c1)Nc1c(F)cccc1Cl [Compound 25, 4-(4-(3-(2-chloro-6-fluorophenyl)ureido)-1H-pyrazol-1-yl)-N-(oxetan-3-yl)thiophene-2-carboxamide]	–	–	–	–	–	–	–	–	–	–	98.1%	103%	91.9%	95.3%	96.8%	96%	96.2%	107%	82.8%	86.1%
O=C(Nc1cnn(-c2csc(C(=O)NC3COC3)c2)c1)Nc1ccccc1Cl [Compound 17, 4-(4-(3-(2-chlorophenyl)ureido)-1H-pyrazol-1-yl)-N-(oxetan-3-yl)thiophene-2-carboxamide]	–	–	–	–	–	–	–	–	–	–	97.8%	99.1%	101%	90.1%	106%	96.1%	105%	98.7%	94.5%	101%
